IC50 data for one compound are collected here from patent US20160296529A1, “AMINOTRIAZOLOPYRIDINE FOR USE IN THE TREATMENT OF INFLAMMATION, AND PHARMACEUTICAL COMPOSITIONS THEREOF” (priority 2012, published 2016).

Experiment [1] deals with IFNα-induced STAT1 phosphorylation (JAK1/TYK2 pathway). Nature of the experiment: Human whole blood assay (hWBA), IFNα stimulation, phospho-STAT1 on CD4+ cells. The class given is cell-based. To be noted: 6 different donors. How it is done: A flow cytometry analysis was performed to establish JAK1 over JAK2 compound selectivity ex vivo using human whole blood. Therefore, blood is taken from human volunteers who gave informed consent. Blood is then equilibrated for 30 min at 37° C. under gentle rocking, then aliquoted in Eppendorf tubes. Compound is added at different concentrations and incubated at 37° C. for 30 min under gentle rocking and subsequently stimulated for 20 min at 37° C. under gentle rocking with interleukin 6 (IL-6) for JAK1-dependent pathway stimulation, Interferon alpha (IFNα) for JAK1/TYK2 pathway stimulation, interleukin 2 (IL-2) for JAK1/JAK3 pathway stimulation or GM-CSF for JAK2-dependent pathway stimulation. Phospho-STAT1 (for IL-6- and IFNα-stimulated cells) and phospho-STAT5 (for IL-2- and GM-CSF-stimulated cells) levels are then evaluated using FACS analysis. […]
Cells were then washed once with 1×PBS and analyzed on a FACSCanto II flow cytometer (BD Biosciences).
50,000 total events were counted and Phospho-STAT1 positive cells were measured after gating on CD4+ cells, in the lymphocyte gate for IL-6- and IFNα-stimulated cells. Phospho-STAT5 positive cells were measured after gating on CD4+ cells, in the lymphocyte gate for IL-2-stimulated cells. Phospho-STAT5 positive cells were measured after gating on CD33+ cells. […]

Experiment [2] has as its target T1, Recombinant human JAK2 catalytic domain (Homo sapiens, UniProt O60674).
T1 construct: amino acids 808-1132; catalog number PV4210; GST; purchased Invitrogen PV4210
The experiment can be described thus: JAK2 Ulight-JAK1 peptide assay. The class given is biochemical. The procedure: 0.0125 mU of JAK2 was incubated with 25 nM Ulight-JAK1(tyr1023) peptide (Perkin Elmer catalog number TRF0121) in kinase reaction buffer (25 mM HEPES pH7.0, 0.01% Triton X-100, 7.5 mM MgCl2, 2 mM DTT, 7.5 μM ATP) with or without 4 μL containing test compound or vehicle (DMSO, 1% final concentration), in a total volume of 20 μL, in a white 384 Opti plate (Perkin Elmer, catalog number 6007290). After 60 min at room temperature, reactions were stopped by adding 20 μL/well of detection mixture (1× detection buffer (Perkin Elmer, catalog number CR97-100C), 0.5 nM Europium-anti-phosphotyrosine (PT66) (Perkin Elmer, catalog number AD0068), 10 mM EDTA). Readout was performed using the Envision with excitation at 320 nm and measuring emission at 615 nm (Perkin Elmer). Kinase activity was calculated by subtracting relative fluorescence units (RFU) obtained in the presence of a positive control inhibitor (10 μM staurosporine) from RFU obtained in the presence of vehicle. The ability of a test compound to inhibit this activity was determined as:
Percentage inhibition−((RFU determined for sample with test compound present−RFU determined for sample with positive control inhibitor) divided by (RFU determined in the presence of vehicle−RFU determined for sample with positive control inhibitor))*100. […]

Several values for one entry are separate records, joined by “and”; a condition that tells them apart may be missing. Equal entries are not always repeated. Where two headings read alike, the source gives them in different places.

Broadly, the IC50 is the concentration that gives 50% inhibition.

T1 sequence (O60674 808-1132): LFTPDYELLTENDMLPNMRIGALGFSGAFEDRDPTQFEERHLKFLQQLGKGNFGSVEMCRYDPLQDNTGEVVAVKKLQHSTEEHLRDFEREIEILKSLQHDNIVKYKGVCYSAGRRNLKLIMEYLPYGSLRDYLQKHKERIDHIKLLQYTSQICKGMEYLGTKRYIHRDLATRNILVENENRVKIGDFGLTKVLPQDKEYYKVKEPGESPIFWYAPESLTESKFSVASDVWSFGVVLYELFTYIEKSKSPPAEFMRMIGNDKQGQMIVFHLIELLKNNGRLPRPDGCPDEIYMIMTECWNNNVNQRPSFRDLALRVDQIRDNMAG

For the compound `Nc1nc2cccc(-c3ccc(CN4CCS(=O)(=O)CC4)cc3)n2n1` [Formula I, 5-[4-(1,1-Dioxothiomorpholin-4-ylmethyl)-phenyl]-[1,2,4]triazolo[1,5-a]pyridin-2-ylamine], the half-maximal inhibitory concentration (IC50) in experiment [1] was 15400 nM; in experiment [2] (average, read-out: IC50 (average)), 397 nM; in experiment [2] (individual determinations, read-out: IC50), 1030 nM and 517 nM and 351 nM and 138 nM and 367 nM and 310 nM and 729 nM and 152 nM and 203 nM and 168 nM.
